What was measured:
[1] = test system: TNFα; assay: Inhibition of cytokine release in PBMC: TNFα; assay type: cell-based; settings: Homo sapiens, Con A + PMA, 20 h, ELISA, read-out: IC 50 PBMC TNFα
Description: (§1) 2. In Vitro Inhibition of Cytokine Release in Jurkat Cells, Human Whole Blood and Peripheral Blood Mononuclear Cells (PBMC).
(§2) Inhibition of cytokine IL-2, IL-4, IL-5 and TNF α was determined as described below. • a. Inhibition of IL-2 in Jurkat cells: Cells were incubated with desired concentrations of the inhibitor for 15 min. Cytokine release was induced by the addition of Concanavalin A (25 μg/ml)+Phorbol Myristate Acetate (50 ng/ml) for IL-2 & TNFα or with Phytohemagglutinin ([…]) for IL-4 & IL-5 and incubated at 37° C. in an atmosphere containing […]. Supernatant was collected after 20 h (IL-2 & TNFα) or 48 h (IL-4 & IL-5) for estimation of cytokines by ELISA. Data were analysed using GraphPad Prism. IC50 values for each compound were determined based on the percent inhibition due to the test compound compared to the control. • b. Inhibition of cytokine release in Human Whole Blood (HWB): Freshly collected HWB was diluted with RPMI medium (1:4.5) and added to a 96-well plate. Wells were incubated with desired concentrations of the inhibitor for 15 min. Cytokine release was induced by the addition of Concanavalin A (25 μg/ml)+Phorbol Myristate Acetate (50 ng/ml) for IL-2 & TNFα or with Phytohemagglutinin (5 μg/ml) for IL-4 & IL-5 and incubated at 37° C. in an atmosphere containing […]. Supernatant was collected after 20 h (IL-2 & TNFα) or 48 h (IL-4 & IL-5) for estimation of cytokines by ELISA. Data were analysed using GraphPad Prism. IC50 values for each compound were determined based on the percent inhibition due to the test compound compared to the control. • c. Inhibition of cytokine release in PBMC: PBMC from freshly collected HWB were isolated by density gradient using Histopaque and seeded in a 96-well plate. Cells were incubated with desired concentrations of the inhibitor for 15 min. Cytokine release was induced by the addition of Concanavalin A (25 μg/ml)+Phorbol Myristate Acetate (50 ng/ml) for IL-2 & TNFα or with Phytohemagglutinin (5 μg/ml) for IL-4 & IL-5 and incubated at 37° C. in an atmosphere containing […]. Supernatant was collected after 20 h (IL-2 & TNFα) or 48 h (IL-4 & IL-5) for estimation of cytokines by ELISA. Data were analysed using GraphPad Prism. IC50 values for each compound were determined based on the percent inhibition due to the test compound compared to the control.

[2] = molecular target: T1, CRAC channels (Homo sapiens (Human), UniProt Q96D31); assay: In-vitro CRAC channel inhibition assay in Jurkat cells (thapsigargin-induced calcium influx); assay type: cell-based
T1 sequence (Q96D31 whole entry): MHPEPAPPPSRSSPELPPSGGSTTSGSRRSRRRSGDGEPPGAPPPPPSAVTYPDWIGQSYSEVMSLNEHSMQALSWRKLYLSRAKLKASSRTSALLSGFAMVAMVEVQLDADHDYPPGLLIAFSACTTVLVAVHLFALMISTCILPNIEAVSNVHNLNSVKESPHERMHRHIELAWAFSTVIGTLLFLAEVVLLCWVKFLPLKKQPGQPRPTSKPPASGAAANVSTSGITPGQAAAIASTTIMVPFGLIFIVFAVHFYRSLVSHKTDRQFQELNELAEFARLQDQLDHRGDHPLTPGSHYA
Outline: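 Jurkat cells given test compounds in Ca2+/Mg2+-free Hanks buffer for 15 min, then thapsigargin (1 μM final) for 15 min to deplete ER stores. IC50 from percent inhibition of thapsigargin-induced Ca2+ influx.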

[3] = test system: IL-2; assay: Inhibition of IL-2 in Jurkat cells; assay type: cell-based; settings: Homo sapiens, Con A + PMA, 20 h, ELISA, read-out: IC 50 Jurkat IL-2
Description: as §1, §2

[4] = test system: IL-4; assay: Inhibition of cytokine release in PBMC: IL-4; assay type: cell-based; settings: Homo sapiens, Phytohemagglutinin, 48 h, ELISA, read-out: IC 50 PBMC IL-4
Description: as §1, §2

[5] = test system: IL-5; assay: Inhibition of cytokine release in Human Whole Blood: IL-5; assay type: cell-based; settings: Phytohemagglutinin, 48 h, ELISA, read-out: IC 50 Human Whole Blood IL-5
Description: as §1, §2

[6] = test system: IL-4; assay: Inhibition of cytokine release in Human Whole Blood: IL-4; assay type: cell-based; settings: Phytohemagglutinin, 48 h, ELISA, read-out: IC 50 Human Whole Blood IL-4
Description: as §1, §2

[7] = test system: IL-2; assay: Inhibition of cytokine release in Human Whole Blood: IL-2; assay type: cell-based; settings: Con A + PMA, 20 h, ELISA, read-out: IC 50 Human Whole Blood IL-2
Description: as §1, §2

[8] = test system: TNFα; assay: Inhibition of cytokine release in Human Whole Blood: TNFα; assay type: cell-based; settings: Con A + PMA, 20 h, ELISA, read-out: IC 50 Human Whole Blood TNFα
Description: as §1, §2

[9] = test system: IL-5; assay: Inhibition of cytokine release in PBMC: IL-5; assay type: cell-based; settings: Homo sapiens, Phytohemagglutinin, 48 h, ELISA, read-out: IC 50 PBMC IL-5
Description: as §1, §2

[10] = test system: IL-2; assay: Inhibition of cytokine release in PBMC: IL-2; assay type: cell-based; settings: Homo sapiens, Con A + PMA, 20 h, ELISA, read-out: IC 50 PBMC IL-2
Description: as §1, §2

[11] = test system: CRAC channels over the voltage operated channels (VOC); settings: Yasurio Yonetoky et al.; cited from earlier work
[12] = test system: NCI-H460 cancer cell line; assay: In-vitro cell proliferation assay in NCI-H460 cancer cell line (MTT); assay type: cell-based; settings: Homo sapiens, 10 μM, 48 h
Description: 1C. In-Vitro Cell Proliferation Assay in NCI-H460 Cancer Cell Line (Anticancer Activity)
Growth inhibition assays were carried out using 10% FBS supplemented media. Cells were seeded at a concentration of 5000 cells/well in a 96-well plate. Test compound at a concentration range from 0.01 to 10000 nM were added after 24 h. Growth was assessed using the 3-[4,5-dimethylthiazol-2-yl]-2,5-diphenyltetrazolium bromide (MTT) dye reduction test at 0 h (prior to the addition of the test compound) and 48 h after the addition of test compound. Absorbance was read on a Fluostar Optima (BMG Labtech, Germany) at a wave length of 450 nm. Data were analysed using GraphPad Prism. IC-50 for each compound was determined based on the % inhibition due to the test compound compared to the control.
For methods of cell proliferation assay, see, for example, Mosmann. T., Journal of Immunological Methods, 65(1-2), 55-63, (1983).

[13] = molecular target: T1, CRAC channels; assay: In-vitro CRAC channel inhibition assay in NCI-H460 cancer cell line (Ca assay); assay type: cell-based; settings: thapsigargin-induced calcium influx, NCI-H460 cells
Description: 1B. In-Vitro CRAC Channel Inhibition Assay in NCI-H460 Cancer Cell Line
Inhibition of CRAC channels was determined following thapsigargin (Sigma, Cat #T9033) induced endoplasmic calcium release in NCI-H460 cells (National Centre For Cell Science (NCCS), Pune).
Cells (30,000 per well) were plated overnight in complete RPMI medium. Medium was substituted with Ca^2+ and Mg^2+ free Hanks buffer and Fluo-8 NW dye (ABD Bioquest, Inc., Sunnyvale, Calif.) loading solution in 96-well black plate. Plate was incubated at 37° C./5% CO2 for 30 min followed by further 15 min incubation at room temperature. Test compounds (DMSO stocks diluted in Ca^2+ and Mg^2+ free Hanks buffer) at desired concentrations were added to the wells and incubated for 15 min. Thapsigargin (1 μM final concentration) was added to the wells and incubated for 15 min to inhibit the Sarco-endoplasmic reticulum Ca^2+ ATPase pump thereby depleting endoplasmic calcium and raising cytosolic calcium concentrations. Store-operated calcium entry was initiated by adding extracellular Ca^2+ to a final concentration of 2.5 mM. Fluorescence was monitored over 30 min on a plate reader (BMG Labtech., Germany) with excitation at 485 nm and an emission wavelength at 520 nm. Data were analyzed using GraphPad Prism. IC50 for each compound was determined based on the percent inhibition of Thapsigargin-induced calcium influx into cells.

[14] = test system: male DBA/1 Ola HSD mice; assay: Collagen-induced arthritis in male DBA/1 Ola HSD mice; assay type: in vivo; settings: 10 mg/kg b.wt, daily po, qd
Description: v. Collagen-induced arthritis in male DBA/1 Ola HSD mice: Collagen induced arthritis in rodent models have been widely used to illustrate and understand the development of the disease besides serving as a surrogate for validation of therapeutic targets for human rheumatoid arthritis. Mice were anesthetized with Isoflurane and given 150 μl of Bovine Type II collagen in Freund's complete adjuvant injections (day 0 and day 21). Treatment was initiated on study day 0 and continued once daily, every day (po, qd). Starting on day 18, clinical scores were given daily for each of the paws (right front, left front, right rear, left rear) and continued till the day of sacrifice (day 34). Daily administration of the test compound (Example 69) at 10 mg/kg b.wt alleviated arthritic symptoms, disease progression, and incidence by 30% compared to the control animals.

[15] = test system: Female Balb/C mice; assay: Concanavalin (Con) A induced Hepatitis in Female Balb/C mice; assay type: in vivo; settings: 10 mg/kg b.wt, oral, 1 hour prior to Con A; blood after 24 hours
Description: i. Concanavalin (Con) A induced Hepatitis in Female Balb/C mice: Con A is often used to prepare experimental animals with high levels of cytotoxic T-lymphocytes, because these cells are involved in the development of viral infections in humans. In this model, animals were administered test compounds orally 1 hour prior to intravenous administration of Con A. Blood samples were collected after 24 hours for determination of Serum glutamic oxaloacetic transaminase (SGOT) and Serum glutamic pyruvic transaminase (SGPT) in serum. Results indicated >85% reduction in serum SGOT & SGPT upon administration of the test compound (example 69) at 10 mg/kg b.wt.

[16] = test system: Guinea Pigs; assay: OVA-Induced Asthma in Guinea Pigs; assay type: in vivo; settings: 10 mg/kg b.wt, oral, 1 h before OVA challenge
Description: iv. OVA-Induced Asthma in Guinea Pigs: Pulmonary eosinophilia and airway remodelling in conjunction with altered neural control of airway tone and airway epithelial desquamation contributes to Airway Hyper-responsiveness (AHR) in asthma. For determination of eosinophil reduction, animals were sensitized with OVA on d0, d7, and d14 followed by another round (0.1% w/v) through inhalation on d19 & d20. Compounds were administered orally 1 h before OVA challenge (0.3%). BAL fluid was collected on d22 for differential count and cytokine estimation. For determination of change in respiratory parameters, animals were subjected to whole body plethysmography immediately after ova challenge.

Row | SMILES | IC50 [1] | inhibition at 1 µM [2] | IC50 [3] | IC50 [4] | IC50 [5] | IC50 [6] | IC50 [7] | IC50 [8] | IC50 [9] | IC50 [10] | selective index CRAC channels over VOC [11] | inhibition at 10 µM [12] | inhibition at 1 µM [13] | alleviation of arthritic symptoms, disease progression, and incidence compared to the control animals [14] | reduction in serum SGOT [15] | reduction in serum SGPT [15] | change in respiratory parameters (whole body plethysmography) [16]
1 | Cc1ncncc1C(=O)Nc1ccc(-n2nc(C(F)(F)F)cc2C2CC2)c(F)c1 [Example 93, N-{4-[5-cyclopropyl-3-(trifluoromethyl)-1H-pyrazol-1-yl]-3-fluorophenyl}-4-methylpyrimidine-5-carboxamide] | 66.8 nM | 90% | 140 nM | 264 nM | 173 nM | 142 nM | 65.1 nM | 148 nM | 140 nM | 52.9 nM | – | – | – | – | – | – | –
2 | O=C(Nc1ccc(-n2nc(C(F)(F)F)cc2C2CC2)nc1)c1c(F)cccc1F [Example 108, N-{6-[5-cyclopropyl-3-(trifluoromethyl)-1H-pyrazol-1-yl]pyridin-3-yl}-2,6-difluorobenzamide] | 16.5 nM | 96.2% | – | 55.8 nM | 19.8 nM | 143 nM | 138 nM | 38.4 nM | 20.6 nM | 17.5 nM | – | – | – | – | – | – | –
3 | O=C(Nc1c(F)cccc1F)c1ccc(-n2nc(C(F)(F)F)cc2C2CC2)c(F)c1 [Example 100, 4-[5-cyclopropyl-3-(trifluoromethyl)-1H-pyrazol-1-yl]-N-(2,6-difluorophenyl)-3-fluorobenzamide] | – | 86.7% | – | – | 56.4 nM | 256 nM | 77.8 nM | – | – | 31.4 nM | – | – | – | – | – | – | –
4 | Cc1nnsc1C(=O)Nc1ccc(-n2nc(C(F)(F)F)cc2C(F)(F)F)cc1 [YM-58483] | – | – | – | – | – | – | – | – | – | – | 31 | – | – | – | – | – | –
5 | Cc1ncsc1C(=O)Nc1ccc(-n2nc(C(F)(F)F)cc2C2CC2)cc1 [Example 53, N-{4-[5-cyclopropyl-3-(trifluoromethyl)-1H-pyrazol-1-yl]phenyl}-4-methylthiazole-5-carboxamide] | 121 nM | 99.4% | – | 79.9 nM | 61.8 nM | – | 274 nM | 125 nM | 146 nM | 21.3 nM | – | 22% | 84.6% | – | – | – | –
6 | O=C(Nc1ccc(-n2nc(C(F)(F)F)cc2C2CC2)c(F)c1)c1c(F)cccc1F [Example 88, N-{4-[5-cyclopropyl-3-(trifluoromethyl)-1H-pyrazol-1-yl]-3-fluorophenyl}-2,6-difluorobenzamide] | – | 100% | – | – | – | 260 nM | 229 nM | – | – | – | – | – | – | – | – | – | –
7 | Cc1ncc(C(=O)Nc2ccc(-n3nc(C(F)(F)F)cc3C3CC3)cc2)c(C)n1 [Example 69, N-{4-[5-cyclopropyl-3-(trifluoromethyl)-1H-pyrazol-1-yl]phenyl}-2,4-dimethylpyrimidine-5-carboxamide] | – | 74.6% | – | – | – | – | – | – | – | – | – | – | – | 30% | > 85% | > 85% | improvement in respiration
